Converted amounts (≈) assume the structure as drawn. “Also recorded” adds a separate entry of the source. Where two headings read alike, the source gives them in different places. Numbered stars: 1 amine (or outer) side, 2 acyl side, 3 side chain; on linkers, the order of the positions; unused ones are H or OH. Bridge positions count the residues as written; N and C are the ends. Square brackets hold non-standard residues; d marks the D form. Side chains are listed from the residue outwards. Peptide text beside a SMILES is read from it. * marks the point of attachment. d(εLys) = N[C@H](CCCCN[*:1])C(=O)[*:2]; εLys = N[C@@H](CCCCN[*:1])C(=O)[*:2]; Fmoc = O=C(OCC1c2ccccc2-c2ccccc21)*; X1 = CC[C@H](C)CCCCC(=O)*; Dab = NCC[C@H](N)C(=O)O
How the values were obtained:
[1] = Cryo-TEM imaging of self-assembled nanostructure; type: physicochemical; conditions: 1 wt % aqueous solutions, above CAC
Method: Imaging was carried out as described previously.[35],[75]
To examine the morphology of the self-assembled nanostructure of these three arm trifunctional peptides, cryo-TEM imaging was performed for 1 wt % solutions, above the measured CAC values. […] In many cases, these structures are deposited on the lacey carbon grid in preference to, or in addition to, the vitrified grid holes.

[2] = Critical aggregation concentration by ANS fluorescence probe assay; type: physicochemical; conditions: emission 486 nm, breakpoint of I/I0 vs log(c/wt %), aqueous solution in ultrapure water, pH 6.5
Method: Fluorescence experiments were carried out as described previously.[35]
To determine the CAC value of individual peptides, the results were plotted as I/I0 versus log(c/wt %), where I indicates the maximum fluorescence intensity of ANS at a given sample concentration and I0 denotes the peak intensity for the ANS solution without peptide.
Critical aggregation concentration (CAC) values of the tripodal peptides were obtained from fluorescence probe assays using 8-anilo-1-naphthalenesulfonic acid (ANS).

[3] = tested on: L929 murine fibroblast cells; assay: MTT cell viability (cytocompatibility) assay; type: cell-based; conditions: L929 murine fibroblasts, after 48 h, n = 3
Method: L929 murine fibroblast cells (ECACC General Cell Collection) were grown in Dulbecco’s modified Eagle’s medium (DMEM) supplemented with 10% fetal bovine serum (FBS), 20 mM HEPES, and 1% GlutaMAX. The cells were maintained at pH 7.4, 37 °C, and 5% CO2 in 25 cm^2 cell culture flasks.
Assays were conducted as described previously.[23]
To be of utility as practical antimicrobials, bioactive molecules must show selective activity compared to their toxicity toward mammalian cells. The cytocompatibility of our peptides was investigated by a cell metabolic activity assay using MTT [3-(4,5-dimethylthiazol-2-yl)-2,5-diphenyltetrazolium bromide] assays using L929 murine fibroblast cell lines.
Figure 6 Cell viability data (with L929 murine fibroblasts) of tripodal peptides: (a) TP, (b) DTP, (c) FTP, and (d) FDTP. The error bar corresponds to the standard deviation of the value from the mean (n = 3, *p < 0.05, **p < 0.01 by performing the Anova statistical test).

[4] = tested on: human red blood cells (hRBCs); conditions: 0.5% (v/v) hRBCs in PBS, peptide 0–0.1 wt %, 1 h, hemoglobin at 414 nm, normalised to 0.1% Triton X-100; mean of three independent experiments
[5] = tested on: E. coli O157:H7 strain EDL933
[6] = tested on: Salmonella enterica serovar Typhimurium; conditions: 24 h
[7] = tested on: Klebsiella aerogenes; conditions: 24 h
[8] = tested on: E. coli EDL933 bacterial membrane; assay: Bacteria live/dead (DMAO/EthD-III) staining, fluorescence microscopy; type: cell-based, Escherichia coli; conditions: E. coli EDL933 treated at MBC for 1 h at 37 °C; DMAO green / EthD-III red
Method: Dual staining of peptide-treated bacteria, to detect potential membrane disruption,[80] was performed using a bacteria live/dead staining kit (PromoKine). This process involves incubating samples with fluorescent, nucleic acid dyes (DMAO, green, and EthD-III, red) that, respectively, are either able or unable to cross the bacterial membrane. […] Next, they were incubated with set volumes of both dyes for 15 min at room temperature. Slides were mounted using 5 μL of the stained solution onto glass coverslips and observed under a Nikon Eclipse Ti inverted microscope using a 10× objective. Images of different treatments, including controls were captured and compared.
Figure 8 DMAO/EtD-III stained images showing the peptide effects on the integrity of the bacterial membrane. Fluorescence microscopy was used to visualize DMAO and EtD-III dyes binding to the bacterial DNA. In this experiment, E. coli EDL933 was incubated with peptides at their minimum bactericidal concentration (MBC) for 1 h at 37 °C, followed by staining with a bacteria live/dead staining kit (PromoKine). Cells with disrupted membranes are stained red (EtD-III), while cells with intact membranes are stained green (DMAO).

[9] = tested on: Pseudomonas aeruginosa (NCTC 13437), clinical multidrug-resistant isolate
[10] = tested on: S. aureus (ATCC 12600); conditions: ATCC 12600, 24 h
[11] = tested on: E. coli EDL933; assay: SEM imaging of peptide-treated bacteria; type: cell-based, Escherichia coli; conditions: E. coli EDL933, peptide at MBC (31.25 μg/mL), 1 h at 37 °C
[12] = E. coli O157:H7 EDL933, 24 h incubation, 5 × 10^6 CFU/mL, absorbance 600 nm, mean of three independent experiments
[13] = E. coli O157:H7 EDL933, 24 h incubation, aliquots plated on MHA, no viable colonies
[14] = P. aeruginosa NCTC13437, 24 h incubation, 5 × 10^6 CFU/mL, absorbance 600 nm, mean of three independent experiments
[15] = P. aeruginosa NCTC13437, 24 h incubation, aliquots plated on MHA, no viable colonies

| Structure (SMILES) | Morphology of self-assembled nanostructure (cryo-TEM) [1] | Critical aggregation concentration (CAC) [2] [wt %] | Cell viability / cytotoxicity (MTT) [3] | Hemolysis of hRBCs [4] | MIC [5, 12] [µg/mL] | MBC [5, 13] [µg/mL] | MBC [6] [µg/mL] | MIC [6] [µg/mL] | MBC [7] [µg/mL] | MIC [7] [µg/mL] | Effect on integrity of the bacterial membrane (live/dead staining) [8] | MIC [9, 14] [µg/mL] | MBC [9, 15] [µg/mL] | MBC [10] [µg/mL] | MIC [10] [µg/mL] | also measured |
| --- | --- | --- | --- | --- | --- | --- | --- | --- | --- | --- | --- | --- | --- | --- | --- | --- |
| NCCCC[C@H](NC(=O)[C@H](CCCCN)NC(=O)[C@H](Cc1ccc(O)cc1)NC(=O)[C@H](CCCCNC(=O)[C@H](Cc1ccc(O)cc1)NC(=O)[C@H](CCCCN)NC(=O)[C@@H](N)CCCCN)NC(=O)[C@H](Cc1ccc(O)cc1)NC(=O)[C@H](CCCCN)NC(=O)[C@@H](N)CCCCN)C(N)=O [TP, (KKY)3K] (H-KKYK([Tyr-Lys-Lys])YKK-NH2) | irregular globular aggregates | 0.0065 ± 0.004 | nor do they or reduce the viability of fibroblasts | did not lyse hRBCs | > 1000 | > 1000 | – | – | – | – | – | – | – | – | – | – |
| NCCCC[C@H](NC(=O)[C@H](CCCCN)NC(=O)[C@H](Cc1ccc(O)cc1)NC(=O)[C@H](CCCCNC(=O)[C@H](Cc1ccc(O)cc1)NC(=O)[C@H](CCCCN)NC(=O)[C@@H](N)CCCCNC(=O)OCC1c2ccccc2-c2ccccc21)NC(=O)[C@H](Cc1ccc(O)cc1)NC(=O)[C@H](CCCCN)NC(=O)[C@@H](N)CCCCNC(=O)OCC1c2ccccc2-c2ccccc21)C(N)=O [FTP, Fmoc-(KKY)3K] (H-K(Fmoc)KYK([Tyr-Lys-εLys-Fmoc])YKK-NH2) | sheet-like structures | 0.0113 ± 0.005 | – | – | 62.5 (≈ 33.8 µM) | 125 (≈ 67.6 µM) | 500 (≈ 271 µM) | 250 (≈ 135 µM) | 62.5 (≈ 33.8 µM) | 62.5 (≈ 33.8 µM) | rapid, membrane-targeting effects | 125 (≈ 67.6 µM) | 250 (≈ 135 µM) | 250 (≈ 135 µM) | 125 (≈ 67.6 µM) | – |
| NCCCC[C@@H](NC(=O)[C@@H](CCCCN)NC(=O)[C@H](Cc1ccc(O)cc1)NC(=O)[C@H](CCCCNC(=O)[C@H](Cc1ccc(O)cc1)NC(=O)[C@@H](CCCCN)NC(=O)[C@H](N)CCCCNC(=O)OCC1c2ccccc2-c2ccccc21)NC(=O)[C@H](Cc1ccc(O)cc1)NC(=O)[C@@H](CCCCN)NC(=O)[C@H](N)CCCCNC(=O)OCC1c2ccccc2-c2ccccc21)C(N)=O [FDTP, Fmoc-(kkY)3K] (H-[dK](Fmoc)[dK]YK([Tyr-dK-d(εLys)-Fmoc])Y[dK][dK]-NH2) | irregular globular aggregates | 0.0123 ± 0.003 | death of fibroblasts; also recorded: cytotoxicity at the two highest concentrations studied | greater leakage of hRBCs | 15.62 (≈ 8.45 µM) | 31.25 (≈ 16.9 µM) | 500 (≈ 271 µM) | 250 (≈ 135 µM) | 62.5 (≈ 33.8 µM) | 62.5 (≈ 33.8 µM) | rapid, membrane-targeting effects | 125 (≈ 67.6 µM) | 250 (≈ 135 µM) | 62.5 (≈ 33.8 µM) | 31.2 (≈ 16.9 µM) | Bacterial surface morphology by SEM [11]: Significant disruption of the surface of the bacteria; Bacterial surface morphology by SEM ([11]; listed as FTDP): collapsed shapes |
| CC[C@H](C)CCCCC(=O)N[C@@H](CCN)C(=O)N[C@H](C(=O)N[C@@H](CCN)C(=O)N[C@H]1CCNC(=O)[C@H]([C@@H](C)O)NC(=O)[C@H](CCN)NC(=O)[C@H](CCN)NC(=O)[C@H](CC(C)C)NC(=O)[C@@H](Cc2ccccc2)NC(=O)[C@H](CCN)NC1=O)[C@@H](C)O [polymyxin B, reference compound] (X1-[Dab]T[Dab][Dab][Dab][dF]L[Dab][Dab]T; lactam 4-C (inferred); N-terminus assumed) | – | – | – | – | – | – | 12.5 (≈ 10.4 µM) | 6.25 (≈ 5.19 µM) | 6.25 (≈ 5.19 µM) | 3.12 (≈ 2.59 µM) | – | – | – | > 100 | > 100 | MBC ([9]; NCTC 13437, 24 h): 25 µg/mL (≈ 20.8 µM); MIC ([9]; NCTC 13437, 24 h): 6.25 µg/mL (≈ 5.19 µM); MBC ([5]; O157:H7, 24 h): 6.25 µg/mL (≈ 5.19 µM); MIC ([5]; O157:H7, 24 h): 3.12 µg/mL (≈ 2.59 µM) |
| NCCCC[C@@H](N)C(=O)N[C@H](CCCCN)C(=O)N[C@@H](Cc1ccc(O)cc1)C(=O)NCCCC[C@H](NC(=O)[C@H](Cc1ccc(O)cc1)NC(=O)[C@@H](CCCCN)NC(=O)[C@H](N)CCCCN)C(=O)N[C@@H](Cc1ccc(O)cc1)C(=O)N[C@H](CCCCN)C(=O)N[C@H](CCCCN)C(N)=O [DTP, (kkY)3K] (H-[dK][dK]YK([Tyr-dK-dK])Y[dK][dK]-NH2) | irregular globular aggregates | 0.0069 ± 0.002 | nor do they or reduce the viability of fibroblasts | did not lyse hRBCs | 500 (≈ 356 µM) | 1000 (≈ 712 µM) | > 1000 | > 1000 | – | – | – | > 1000 | > 1000 | > 1000 | > 1000 | – |

From publication PMC11752523, “Effect of Chirality and Amphiphilicity on the Antimicrobial Activity of Tripodal Lysine-Based Peptides” (ACS Applied Bio Materials, 2025)
